One may read the inhibition as the drop in the measured response relative to a control, in per cent.

This note sets out measurements from patent US9814732B2, “Ulipristal acetate for prevention and treatment of breast tumors” (LABORATOIRE HRA-PHARMA, priority 2012, dated 2017).

Data set [1] concerns the target T1, GR (Homo sapiens, UniProt P04150).
T1 sequence (P04150 1-777): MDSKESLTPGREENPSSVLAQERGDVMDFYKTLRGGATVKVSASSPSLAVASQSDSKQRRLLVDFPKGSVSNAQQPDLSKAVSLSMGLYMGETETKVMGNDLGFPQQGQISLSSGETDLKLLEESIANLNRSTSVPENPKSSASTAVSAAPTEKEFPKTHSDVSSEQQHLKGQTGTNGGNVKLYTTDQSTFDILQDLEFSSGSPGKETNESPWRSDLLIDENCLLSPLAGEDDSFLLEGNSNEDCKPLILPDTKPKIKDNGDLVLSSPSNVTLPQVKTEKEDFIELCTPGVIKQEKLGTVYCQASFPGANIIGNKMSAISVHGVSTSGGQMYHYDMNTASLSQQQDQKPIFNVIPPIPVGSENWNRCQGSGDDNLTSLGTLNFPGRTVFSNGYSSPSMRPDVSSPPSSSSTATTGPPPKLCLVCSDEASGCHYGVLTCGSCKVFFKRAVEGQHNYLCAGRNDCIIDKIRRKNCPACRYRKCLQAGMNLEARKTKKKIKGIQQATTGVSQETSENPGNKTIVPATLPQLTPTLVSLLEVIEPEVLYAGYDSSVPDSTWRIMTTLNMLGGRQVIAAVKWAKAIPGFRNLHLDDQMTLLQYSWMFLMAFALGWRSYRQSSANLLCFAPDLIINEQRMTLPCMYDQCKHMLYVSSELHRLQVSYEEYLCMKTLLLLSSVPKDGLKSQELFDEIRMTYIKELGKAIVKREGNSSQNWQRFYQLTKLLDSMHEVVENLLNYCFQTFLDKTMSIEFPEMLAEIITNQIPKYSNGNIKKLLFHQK
The data set can be described thus: GRE-Luc reporter gene transactivation in MCF-7 cells. In kind it is cell-based. Also noted: endogenous in cells; host or cells: MCF-7. The settings on record: MCF7, DEX 100 nM, test compound 100 nM, read-out: inhibition of DEX-induced luciferase transactivation (GRE-Luc).

For the next data set, the system named is T-47D cells. The data set can be described thus: Tritiated thymidine incorporation (proliferation) in T-47D cells. In kind it is cell-based, human. The settings on record: 48 h. On the procedure:
(§1) After seeding, cells were cultured for 24 h in serum and phenol red free medium. Then treatments were carried out in a phenol red free medium containing 5% dextran-charcoal stripped serum. Cells were treated with P or DEX (100 nM), alone or in combination with UPA, RU (1 nM to 1 μM) or CDB-3877 (100 nM). Control cells were treated with ethanol, at […] 1:1000 final ethanol concentration alone as vehicle or E2 (10 nM).
(§2) After 24 h of hormonal treatment, cells were incubated with [methyl-1 3H] thymidine (Perkin Elmer, Courtaboeuf, France) for 48 h or 20 h for KBE or cancer cells, respectively at 37° C. After incubation cells were washed twice with PBS 1× and once with 5% trichloroacetic acid (TCA). Cells were incubated in 5% TCA for 15 min at 4° C. and lysed in NaOH 0.1 N for 30 min at 37° C. The total cell lysate was added to 5 ml of Ecolite scintillation liquid (MP biomedical, Illkirch, France) and radioactivity was counted with a β-counter HIDEX 300SL (ScienceTec, Courtaboeuf, France).
(Uptake of a labelled nucleoside into DNA is a usual measure of proliferation.)

A further data set concerns HBE cells. The data set can be described thus: Tritiated thymidine incorporation (proliferation) in HBE cells. The following applies: 96 h. In kind it is cell-based, human. As for the experimental part:
as §1, §2

Another data set has as its target T2, PR (Homo sapiens, UniProt P06401).
T2 sequence (P06401 1-933): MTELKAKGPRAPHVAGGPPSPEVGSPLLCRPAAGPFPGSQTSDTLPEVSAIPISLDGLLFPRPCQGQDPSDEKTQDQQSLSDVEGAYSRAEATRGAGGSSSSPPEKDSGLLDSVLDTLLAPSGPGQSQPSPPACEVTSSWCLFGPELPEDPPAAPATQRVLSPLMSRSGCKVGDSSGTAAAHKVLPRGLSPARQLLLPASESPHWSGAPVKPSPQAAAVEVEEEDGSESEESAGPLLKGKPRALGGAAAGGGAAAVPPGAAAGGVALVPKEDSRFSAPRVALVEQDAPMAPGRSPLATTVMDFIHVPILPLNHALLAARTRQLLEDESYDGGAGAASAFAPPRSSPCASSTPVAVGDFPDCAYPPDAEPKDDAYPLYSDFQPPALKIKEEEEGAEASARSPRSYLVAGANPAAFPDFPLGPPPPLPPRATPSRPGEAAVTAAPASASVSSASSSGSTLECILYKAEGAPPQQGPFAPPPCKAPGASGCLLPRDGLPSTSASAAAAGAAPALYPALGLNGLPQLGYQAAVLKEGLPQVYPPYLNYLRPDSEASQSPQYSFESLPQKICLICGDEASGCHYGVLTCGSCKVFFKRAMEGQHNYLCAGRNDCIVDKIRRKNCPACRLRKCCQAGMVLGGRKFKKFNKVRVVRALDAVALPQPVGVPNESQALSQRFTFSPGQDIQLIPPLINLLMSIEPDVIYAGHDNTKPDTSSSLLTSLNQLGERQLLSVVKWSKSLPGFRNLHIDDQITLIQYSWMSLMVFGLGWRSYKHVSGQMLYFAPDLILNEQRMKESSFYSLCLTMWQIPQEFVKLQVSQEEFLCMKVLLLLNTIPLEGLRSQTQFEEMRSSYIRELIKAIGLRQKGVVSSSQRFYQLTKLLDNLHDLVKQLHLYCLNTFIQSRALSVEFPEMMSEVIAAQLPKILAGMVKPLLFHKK
In words: MMTV-Luc reporter gene transactivation in T-47D cells. In kind it is cell-based. On the set-up: constitutively expressed high amounts of PR (progesterone receptor); endogenous in cells; host or cells: T-47D. A general note: In a reporter assay the amount or activity of a reporter protein is the signal.

For data set [2], the target named is T1, GR. In words: GRE-Luc reporter gene transactivation in HBE cells. In kind it is cell-based. The following applies: DEX 100 nM, test compound 100 nM, read-out: inhibition of DEX induced luciferase transactivation (GRE-Luc).
Data set [3] is described as follows: Tolerability and body weight in HBCx-34 tumor-bearing nude mice. The following applies: UPA 130 mg/kg p.o., 42 days. In kind it is in vivo. As for the experimental part: Mice were allocated to different groups according to their tumor volume to give homogenous mean and median tumor volume in each treatment arms. Ten mice/group, with HBCx-34 tumors between 75 and 144 mm^3, were randomized according to their tumor volume into experimental groups, and treatments (UPA 130 mg/kg, p.o. or control vehicle) were initiated 33 days post implantation of the tumor for a total duration of 42 days.
Animals were weighted biweekly during all the experimental period. Toxicity of the different treatments was determined as body weight loss.

For the compound `CC(=O)O[C@]1(C(C)=O)CCC2C3CCC4=CC(=O)CCC4=C3[C@@H](c3ccc(N(C)C)cc3)C[C@@]21C` (stereo partly shown) [UPA, 17[…]-acetoxy-11[…]-[4-N,N-dimethylamino-phenyl)-19-norpregna-4,9-diene-3,20-dione], the figures for the inhibition at 0.1 µM on GR [1] and on GR [2] were 59 ± 3.4% and 41.3 ± 5.8%, respectively. The “cell proliferation ([3H] thymidine incorporation), compound alone” value in the data set on T-47D cells (100 nM) and in the data set on HBE cells (100 nM) was “had no effect on proliferation” each time. The “effect of UPA on P-mediated proliferation change” value is reported as “reversed P anti-proliferative activity” with T-47D cells (P 100 nM + UPA 100 nM) and “did not inhibit the anti-proliferative effect induced by P” in the data set on HBE cells (P 100 nM + UPA 100 nM). Further, the “effect of UPA on DEX-mediated proliferation change” value in the data set on HBE cells (DEX 100 nM + UPA 100 nM) is reported as “inhibited the strong proliferative activity induced by DEX”. For the same compound, the “PR antagonist response on MMTV-Luc transactivation at 1 nM” value on PR (P 100 nM, antagonist 1 nM) is listed as “Partial antagonist responses”. Also, the “PR antagonist action on MMTV-Luc transactivation” value at PR (P 100 nM, antagonist 1000 to 10 nM) is on record as “potent PR antagonist actions from 1000 to 10 nM”. Further, on PR (compound alone), the “progestational agonist properties on reporter gene transcription” value is recorded as “did not exhibit progestational agonist properties”. For the same compound, the body weight loss entry in data set [3] is reported as “no significant body weight loss”. Moreover, the tolerability of treatment result in data set [3] is given as “well tolerated”. For the same compound, the “treatment related clinical observation” value in data set [3] was “No treatment related clinical observation”.
